# Measured values reported in patent US11793792B2, “Composition for prevention and treatment of hair growth disorders” (GIULIANI S.P.A., priority 2018, dated 2023).
# Key:
# Lef1 [1] = assay: LEF1 mRNA expression (RT-PCR) in Human Follicle Dermal Papilla Cells (HFDPC); type: cell-based; details: 24 h incubation; for Lef1 fold of change mRNA expression: normalized to GAPDH, relative to untreated calibrator (vehicle = 1)
# From the text: In the present test, Hair cell line (derma papilla cells) were used rather than human hair follicle, as in the experiment of Example 4.
# We evaluated the stimulation of Lef1 (marker of hair growth) and we retested compound 1 and compound 5 and we use also included the compound WAY-316660, a relatively non-toxic specific antagonist of SFRP1, which has already been used for the treatment of osteoporosis, for its known hair growth promotion activity (Rif. Hawkshaw et al. Plos Biol, 2018; https://journals.plos.org/plosbiology/article?id=10.1371/journal.pbio.2003705).
# Biological Model Human Follicle Dermal Papilla Cells (HFDPC)
# The cell line was cultured in Follicle Dermal Papilla Cell medium in 25 cm^2 culture flasks at 37° C., 5% CO2. Every two days confluent cultures were splitted 1:3-1:6, after washing with PBS 1× (without Ca2+ and Mg2+), using Trypsin/EDTA and seed at 2-5·10^4 cell/cm^2, 37° C., 5% CO2.
# The expression of LEF1 was investigated by RT-PCR. The analysis was performed according to the reported method (Gibson et al, 1996; Heid et al, 1996) using TaqMan Gene Expression Assay supplied by Applied Biosystems. Briefly, within a gene-specific PCR oligonucleotide primer pair, an oligonucleotide probe labelled with a reporter fluorescent dye (FAM) at the 50-end and a quencher fluorescent dye (TAMURA) at the 30-end was designed. When the probe was intact, the reporter dye emission was quenched. During the extension phase of the PCR cycle, the nucleolytic activity of the DNA polymerase cleaved the hybridization probe and released the reporter dye from the probe. Fluorescence intensity produced during PCR amplifications was monitored by a sequence detector directly in the reaction tube (“real time”). A computer algorithm compared the amount of reporter dye emission with the quenching dye emission and calculated the threshold cycle number (CT) when signals reached ten times the standard deviation of the baseline, from which the levels of the mRNAs transcribed from the various genes tested were obtained (Gibson et al, 1996).
# Gene expression analysis involves four following step: • 1. Treatments of cells with active compounds for 24 h; • 2. RNA extraction; • 3. cDNA retro transcription; • 4. Quantitative RT-PCR; Day 1: Seed cells
# When the cells (Human Follicle Dermal Papilla Cells) reached approximately 80% confluence, they were harvested with trypsin/EDTA and seeded at a density of 1×10^6 cells/ml into 12-well plates and then incubated at 37° C., 5% CO2 (24 h).
# When the cells reached approximately 80% confluence, complete medium was removed; cells were washed once with PBS 1× and the incubated in Human Follicle Dermal Papilla Cells at 37° C., 5% CO2 for at least 24 h;
# Compounds to be tested (WAY316606, 1, 5, 7, 17, 18, 20, 21, 24) were dissolved in DMSO and diluted at final concentration in Human Follicle Dermal Papilla Cells.
# Cells were then incubated at 37° C., 5% CO2 for different 24 h.
# Total RNAs were extracted from the cells using Tri Reagent (Thermo Fisher), that is a single, homogenous solution for the isolation of total RNA. This procedure is an improvement of the single-step method reported by (Chomczynski and Mackey, 1995) for total RNA isolation. Tri Reagent, a mixture of guanidine thiocyanate and phenol in a monophase solution, effectively dissolves DNA, RNA, and protein on homogenization or lysis of tissue sample and contains a unique combination of denaturants and RNase inhibitors and is used in a convenient, single-step disruption/separation procedure.
# Total RNA, extracted and quantified, was amplified using the “PRIME SCRIPT RT reagent kit (Perfect Real time) (Takara).
# For amplification we used the Real time PCR System Mx3000P (Stratagene) and each total RNA was amplified in duplicate.
# The RT-PCR analysis was set, using TaqMan linear probes (Applied Biosystems). Those probes are the most widely used and published detection chemistry for qPCR applications. […]
# Lef1 [2] = assay: Lef1 gene expression (qRT-PCR) in human hair follicle organ culture; type: cell-based; details: microdissected human anagen VI scalp hair follicles; 15 μM; treated 6 hours; normalized on GAPDH; vehicle = 1; N=8 HFs/group from 1 donor
# Procedure: Evidence of the activity of compounds of the invention is provided by the expression of Lymphoid enhancer binding factor-1 (Lef1), which plays an important role in bulge stem cells cell growth and differentiation (International Journal of Medical Sciences 2013; 10 (6):738-746).
# These products were reconstituted in DMSO (stock solution) and intermediate or working solutions were prepared diluting the stock or the intermediate solution in William's E medium. […]
# RNA was extracted from hair follicles with RNeasy kit (Qiagen, USA), and reverse transcribed with Tetro cDNA synthesis kit (Bioline) according to manufacturer's instructions. qPCR was performed in QuantStudio3 (Thermo Fisher) with Taqman probe for Axin2 (Hs00610344_m1, Thermo Fisher), Lef1 (Hs01547250_m1, Thermo Fisher), b-actin (Hs01060665_g1, Life Technologies) and Gapdh (Hs02758991_g1, Thermo Fisher). Expression levels were calculated with the delta-delta CT method. […]
Compound,Lef1 fold of change mRNA expression (Lef1 [1]),"genic expression of Lef1 (mRNA), mean (Lef1 [2])",effect on LEF1 mRNA expression / activity (in words) (Lef1 [1]),effect on LEF1 mRNA expression / activity (in words) (Lef1 [1]; listed as 1),effect on LEF1 mRNA expression / activity (in words) (Lef1 [1]; listed as 5)
"O=S(=O)(NC1CCNCC1)c1cc(S(=O)(=O)c2ccccc2)ccc1C(F)(F)F [WAY-316606, reference compound]",2.18,–,–,–,–
COC(=O)c1cc(-c2ccccc2)sc1NC(=O)CC1SC(=N)NC1=O (centres unmarked) [Compound C18],1.56,–,–,–,–
CCOC(=O)c1c(NC(=O)CC2SC(=N)NC2=O)sc(C)c1-c1ccccc1 (centres unmarked) [Compound C20],1.39,–,–,–,–
"COC(=O)c1c(NC(=O)CC2SC(=N)NC2=O)sc(C)c1C (centres unmarked) [Compound C1, 2-(2-(2-Imino-4-oxo-thiazolidin-5-yl)-acetylamino)-4,5-dimethyl-thiophene-3-carboxylic acid methyl ester]",8.43,3.425,more active,major induction of Lef1,–
CCOC(=O)c1c(NC(=O)CC2SC(=N)NC2=O)sc(Br)c1C (centres unmarked) [Compound C7],2.46,–,more active,–,–
N=C1NC(=O)C(CC(=O)Nc2scc(C3CCC3)c2C(N)=O)S1 (centres unmarked) [Compound C24],1.88,–,–,–,–
CCOC(=O)c1c(C2CC2)csc1NC(=O)CC1SC(=N)NC1=O (centres unmarked) [Compound C21],1.79,–,–,–,–
"CCOC(=O)c1c(NC(=O)CC2SC(=N)NC2=O)sc(C)c1C (centres unmarked) [Compound C5, 2-(2-(2-Imino-4-oxo-thiazolidin-5-yl)-acetylamino)-4,5-dimethyl-thiophene-3-carboxylic acid ethyl ester]",6.05,6.134,more active,–,major induction of Lef1
COC(=O)c1ccsc1NC(=O)CC1SC(=N)NC1=O (centres unmarked) [Compound C17],2.52,–,more active,–,–
